Assay results as given in patent publication US20260242776A1, “Modification of tRNA T-Stem for Enhancing N-Methyl Amino Acid Incorporation” (priority 2019, published 2026).
*1 amine or outer side, *2 acyl side, *3 side chain or, on linkers, in order; H or OH if unused. Where no end group is shown, it is not given here. [ ]: non-standard residue; d: D form. The star is where a group is joined. MeYm = N-methyl-p-methoxyphenylalanine, COc1ccc(C[C@@H](C(=O)[*:2])N(C)[*:1])cc1; NMeY = CN[C@@H](Cc1ccc(O)cc1)C(=O)O; NMeF = CN[C@@H](Cc1ccccc1)C(=O)O; NMeNle = CCCC[C@H](NC)C(=O)O; NMeNva = CCC[C@H](NC)C(=O)O; NMeV = CN[C@H](C(=O)O)C(C)C; NMeS = CN[C@@H](CO)C(=O)O; NMeA = CN[C@@H](C)C(=O)O; Sar = CNCC(=O)O; For = O=C*

Test system: FIT system (reconstituted E. coli cell-free translation system)
Experiment: In vitro translation in FIT system, peptide expression level by tricine-SDS-PAGE autoradiography
Assay type: biochemical
Conditions: mRNA14, 9 different ^MeAAs; control translation using 20 pAAs; FIG. 6d, 6e

“P14: 32-mer model peptide composed of 9 respectively different ^MeAAs and 14 pAAs, translated from mRNA14 (For-MKKK[NMeS]HM[Sar][NMeV]TE[NMeNle]S[NMeY][NMeA]QN[MeYm]GW[NMeNva]R[NMeF]PDYKDDDDK)” was tested, and the “Expression efficiency relative to the control” value was 34%.
